Reference: the supplement of paper PMC10307832

How the values were obtained:
Assay in all cases: relative viability (nuclei count vs DMSO), 5 days (fraction); higher = more cells survive
[1] = compound: CS(=O)(=O)c1ccc(C(=O)Nc2ccc(Cl)c(-c3ccccn3)c2)c(Cl)c1 [Vismodegib] + Cc1nc(Nc2ncc(C(=O)Nc3c(C)cccc3Cl)s2)cc(N2CCN(CCO)CC2)n1 [Dasatinib] (partner 0.075 µM)
Method in brief: (§1)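 Relative viability was taken as the ratio of nuclei in treated wells to nuclei in vehicle wells. Lung cancer cell lines in 1536-well plates received compounds by pin tool one day after seeding, either one drug alone or a fixed anchor-drug dose plus five library-drug doses (not always all listed) in √10 steps. Nuclei were counted on 4× images after 5 days of treatment, and values are medians of duplicate plates.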

[2] = compound: CS(=O)(=O)c1ccc(C(=O)Nc2ccc(Cl)c(-c3ccccn3)c2)c(Cl)c1 [Vismodegib] + CC(=O)Nc1cccc(-n2c(=O)n(C3CC3)c(=O)c3c(Nc4ccc(I)cc4F)n(C)c(=O)c(C)c32)c1 [Trametinib] (partner 0.02 µM)
Method in brief: as §1

[3] = compound: CS(=O)(=O)c1ccc(-c2cnc(N)c(C(=O)Nc3ccccc3)n2)cc1 [VE-821] + CS(=O)(=O)CCNCc1ccc(-c2ccc3ncnc(Nc4ccc(OCc5cccc(F)c5)c(Cl)c4)c3c2)o1 [Lapatinib] (partner 2 µM)
Method in brief: as §1

[4] = compound: CS(=O)(=O)c1ccc(C(=O)Nc2ccc(Cl)c(-c3ccccn3)c2)c(Cl)c1 [Vismodegib] + CS(=O)(=O)CCNCc1ccc(-c2ccc3ncnc(Nc4ccc(OCc5cccc(F)c5)c(Cl)c4)c3c2)o1 [Lapatinib] (partner 2 µM)
Method in brief: as §1

Cell Line	relative viability ([1]; first compound 0.08 µM)	relative viability ([1]; first compound 0.253 µM)	relative viability ([1]; first compound 0.8 µM)	relative viability ([1]; first compound 2.53 µM)	relative viability ([1]; first compound 8 µM)	relative viability ([2]; first compound 0.08 µM)	relative viability ([2]; first compound 0.8 µM)	relative viability ([2]; first compound 2.53 µM)	relative viability ([2]; first compound 8 µM)	relative viability ([3]; first compound 0.08 µM)	relative viability ([3]; first compound 0.253 µM)	relative viability ([3]; first compound 0.8 µM)	relative viability ([3]; first compound 2.53 µM)	relative viability ([3]; first compound 8 µM)	relative viability ([4]; first compound 0.08 µM)	relative viability ([4]; first compound 0.253 µM)	relative viability ([4]; first compound 0.8 µM)	relative viability ([4]; first compound 2.53 µM)	relative viability ([4]; first compound 8 µM)	relative viability ([2]; first compound 0.253 µM)
HARA	0.263	0.249	0.254	0.339	0.279	0.749	0.613	0.689	0.659	0.825	0.559	0.826	0.757	0.47	0.858	0.713	0.662	0.797	0.634	
NCI-H1666	0.73	0.777	0.816	0.841	0.734	0.816	0.836	0.899	0.904	0.839	0.57	0.713	0.623	0.462	0.72	0.616	0.453	0.558	0.879	0.852
NCI-H460	0.575	0.507	0.533	0.482	0.533	0.175	0.127	0.141	0.107	1.33	0.996	0.82	0.729	0.398	0.903	0.887	1.2	0.823	1.03	0.132
NCI-H1792	0.697	0.726	0.673	0.505	0.655	0.392	0.361	0.376	0.398	1.04	0.964	0.913	0.966	0.816	0.851	0.97	0.872	0.79	0.878	0.447
NCI-H2087	0.98	0.769	0.812	0.94	0.69	0.199	0.166	0.172	0.213	0.987	1.12	1.13	1.26	1.02	0.872	0.856	1.12	1.07	0.863	0.183
NCI-H1355	0.686	0.723	0.591	0.771	0.689	0.47	0.392	0.39	0.406	1.06	1.05	0.834	1.07	0.627	0.93	0.923	0.844	0.951	0.957	0.417
NCI-H838	0.213	0.275	0.303	0.285	0.319	0.536	0.535	0.5	0.624	1.08	0.99	0.921	1.11	0.657	0.888	1.01	0.987	0.99	1.09	0.488
SW 1573	0.406	0.44	0.389	0.447	0.632	0.571	0.609	0.548	0.552	1.12	1.07	1.12	0.58	0.989	0.974	1.08	1.14	0.959	1.18	0.522
NCI-H2085	0.26	0.244	0.22	0.217	0.213	0.551	0.594	0.621	0.539	0.8	0.758	0.507	0.815	0.563	0.764	0.809	0.71	0.751	0.81	0.549
NCI-H1651	0.434	0.446	0.388	0.349	0.591	0.813	0.81	0.815	0.84	0.93	0.815	0.785	1.04	0.74	0.869	0.867	0.852	0.83	0.89	0.822
NCI-H1993	0.499	0.763	0.562	0.565	0.554	0.508	0.549	0.438	0.492	0.947	0.837	0.75	0.784	0.826	0.745	1.02	0.806	0.788	0.777	0.607
NCI-H2126	0.666	0.57	0.554	0.544	0.473	0.558	0.568	0.58	0.565	0.741	0.713	0.747	0.677	0.6	0.725	0.746	0.701	0.616	0.729	0.519
NCI-H1793		0.408	0.374	0.416	0.365		0.479	0.409	0.413	0.868	0.735	0.642	1.31	0.815		0.667	0.658	0.671	0.676	0.366
LC-2-ad	0.677	0.568	0.467	0.482	0.557	0.892	0.894	0.834	0.898	1.06	1.01	1.08	1.07	0.963	0.917	0.963	0.993	0.943	0.954	0.834
NCI-H647	0.222	0.202	0.177	0.18	0.194	0.446	0.517	0.409	0.55	1.15	0.884	1	1.16	0.535	0.99	0.998	1.17	1.01	1.12	0.486
LCLC-97TM1	0.855	0.755	0.617	0.856	0.834	0.207	0.205	0.173	0.208	0.75	0.716	0.669	0.848	0.393			0.663		1.03	0.166

Cell Line	relative viability ([1]; first compound 0.08 µM)	relative viability ([1]; first compound 0.253 µM)	relative viability ([1]; first compound 0.8 µM)	relative viability ([1]; first compound 2.53 µM)	relative viability ([1]; first compound 8 µM)	relative viability ([2]; first compound 0.08 µM)	relative viability ([2]; first compound 0.8 µM)	relative viability ([2]; first compound 2.53 µM)	relative viability ([2]; first compound 8 µM)	relative viability ([3]; first compound 0.08 µM)	relative viability ([3]; first compound 0.253 µM)	relative viability ([3]; first compound 0.8 µM)	relative viability ([3]; first compound 2.53 µM)	relative viability ([3]; first compound 8 µM)	relative viability ([4]; first compound 0.08 µM)	relative viability ([4]; first compound 0.253 µM)	relative viability ([4]; first compound 0.8 µM)	relative viability ([4]; first compound 2.53 µM)	relative viability ([4]; first compound 8 µM)	relative viability ([2]; first compound 0.253 µM)
LK-2	0.316	0.355	0.325	0.255	0.376	0.645	0.628	0.831	0.615	1.18	0.891	0.891	0.906	0.874	0.916	0.941	0.893	0.896	0.72	0.726
BEN	0.385	0.399	0.337	0.315	0.296	1.14	0.873	1.14	1.1	0.845	0.775	0.657	0.8	0.662	0.77	0.718	0.778	0.844	0.733	1.03
NCI-H650	0.507	0.43	0.358	0.438	0.441	0.891	0.846	0.981	1.05	0.887	0.929	0.903	0.957	0.982	0.967	0.695	0.623	0.841	0.899	0.91
EKVX	0.491	0.561	0.604	0.576	0.526		0.273	0.273	0.315	0.209	0.196	0.219	0.242	0.186	0.21	0.223	0.164	0.243	0.197	0.392
NCI-H1395	0.385	0.389	0.398	0.417	0.414	0.851	0.878	0.921	1.1	0.902	1.15	0.903	0.987	0.768	1.06	0.899	0.855	0.927	1.18	0.958
NCI-H2009	0.286	0.261	0.234	0.3	0.344	0.313	0.309	0.291	0.331	0.89	0.959	0.893	0.997	0.977	0.901	0.891	0.892	0.899	0.788	0.321
NCI-H23	0.81	0.825	0.73	0.838	0.754	0.511	0.368	0.411	0.482	1.19	1.07	1.27	0.989	0.394	1.1	1.08	1.09	1.11	1.09	0.353
LU99A	0.401	0.507	0.546	0.509	0.708	0.586	0.536	0.531	0.539	1.06	1.11	1.04	0.85	0.448	0.928	1.04	1.04	1.04	0.979	0.524
NCI-H1915	0.346	0.296	0.295	0.266	0.326	0.295	0.303	0.303	0.335	1	0.999	0.994	1.04	0.88	0.936	0.975	0.995	0.901	0.978	0.282
EMC-BAC-2	0.334	0.365	0.285	0.353	0.317	0.871	0.806	0.859	0.953	1.04	0.902	0.97	1.01	0.873	0.891	0.857	0.839	0.933	0.9	0.847
201T	0.646	0.52	0.481	0.569	0.463	0.724	0.737	0.698	0.657	1.1	0.937	0.966	1.01	0.976	1.05	0.998	0.946	1.04	1.02	0.721
NCI-H2228	0.593	0.529	0.46	0.452	0.454	0.368	0.484	0.417	0.585	1.18	1.23	1.14	1.04	0.37	1.16	1.19	1.03	1.05	1.02	0.42
NCI-H1944	0.228	0.213	0.201	0.242	0.204	0.386	0.425		0.399	1.09	0.811	0.748	0.935	0.386	0.925	0.746	0.801	0.79	0.972	0.395
NCI-H1437	0.313	0.372	0.402	0.328	0.377	0.462	0.493	0.535	0.536	0.816	0.71	0.763	0.871	0.614	0.741	0.791	0.783	0.816	0.762	0.485
EPLC-272H	0.362	0.367	0.397	0.327	0.312	0.276	0.246	0.282	0.297	1.07	0.976	1.12	1.24	0.848	0.789	0.893	0.947	0.939	0.91	0.269
LOU-NH91	0.55	0.554	0.526	0.547	0.511	0.762	0.8	0.786	0.772	0.758	0.821	0.764	0.697	0.655	0.757	0.798	0.663	0.745	0.841	0.804
